Test results: the NIST ThermoML archive (doi:10.1016/j.fluid.2006.05.032)
± gives the expanded uncertainty stated by the source.

Test: xn = mol fraction of the nth substance listed
Settings: Liquid, Vibrating tube method

Cc1ccccc1 [toluene] + CCCO
mass density [kg/m3]
Settings | x2 = 0 | x2 = 0.125 | x2 = 0.25 | x2 = 0.375 | x2 = 0.5 | x2 = 0.625 | x2 = 0.75 | x2 = 0.875
293.15 K, 100 kPa | 867.1 ± 1 | 860.6 ± 1 | 854.5 ± 1 | 848.1 ± 1 | 841.2 ± 1 | 833.5 ± 1 | 825.1 ± 1 | 815.3 ± 1
293.15 K, 5000 kPa | 870.6 ± 1 | 864.1 ± 1 | 858.2 ± 1 | 851.7 ± 1 | 844.7 ± 1 | 837 ± 1 | 828.7 ± 1 | 818.9 ± 1
293.15 K, 10000 kPa | 874.2 ± 1 | 867.7 ± 1 | 861.7 ± 1 | 855.1 ± 1 | 848.4 ± 1 | 840.6 ± 1 | 832.3 ± 1 | 822.6 ± 1
293.15 K, 15000 kPa | 877.6 ± 1 | 871.2 ± 1 | 865.2 ± 1 | 858.6 ± 1 | 851.8 ± 1 | 844.1 ± 1 | 835.8 ± 1 | 826.1 ± 1
293.15 K, 20000 kPa | 881.1 ± 1 | 874.5 ± 1 | 868.5 ± 1 | 861.9 ± 1 | 855.1 ± 1 | 847.4 ± 1 | 839.2 ± 1 | 829.4 ± 1
293.15 K, 25000 kPa | 884.2 ± 1 | 877.8 ± 1 | 871.7 ± 1 | 865.1 ± 1 | 858.3 ± 1 | 850.6 ± 1 | 842.4 ± 1 | 832.6 ± 1
293.15 K, 30000 kPa | 887.3 ± 1 | 880.9 ± 1 | 874.9 ± 1 | 868.3 ± 1 | 861.5 ± 1 | 853.7 ± 1 | 845.4 ± 1 | 835.7 ± 1
293.15 K, 35000 kPa | 890.3 ± 1 | 883.9 ± 1 | 877.9 ± 1 | 871.3 ± 1 | 864.5 ± 1 | 856.7 ± 1 | 848.4 ± 1 | 838.7 ± 1
293.15 K, 40000 kPa | 893.3 ± 1 | 886.9 ± 1 | 880.9 ± 1 | 874.2 ± 1 | 867.4 ± 1 | 859.7 ± 1 | 851.3 ± 1 | 841.7 ± 1.1
293.15 K, 45000 kPa | 896.1 ± 1 | 889.7 ± 1 | 883.7 ± 1 | 877.1 ± 1 | 870.3 ± 1 | 862.6 ± 1 | 854.1 ± 1.1 | 844.4 ± 1.1
293.15 K, 50000 kPa | 898.9 ± 1 | 892.5 ± 1 | 886.5 ± 1 | 879.9 ± 1 | 873.1 ± 1 | 865.3 ± 1.1 | 856.9 ± 1.1 | 847.2 ± 1.1
293.15 K, 55000 kPa | 901.6 ± 1 | 895.2 ± 1 | 889.2 ± 1 | 882.6 ± 1 | 875.7 ± 1.1 | 868 ± 1.1 | 859.6 ± 1.1 | 849.7 ± 1.1
293.15 K, 60000 kPa | 904.2 ± 1 | 897.9 ± 1 | 891.8 ± 1 | 885.2 ± 1.1 | 878.3 ± 1.1 | 870.6 ± 1.1 | 862.1 ± 1.1 | 852.3 ± 1.1
293.15 K, 65000 kPa | 906.7 ± 1 | 900.5 ± 1 | 894.4 ± 1.1 | 887.7 ± 1.1 | 880.9 ± 1.1 | 873.1 ± 1.1 | 864.7 ± 1.1 | 854.8 ± 1.1
303.15 K, 100 kPa | 857.5 ± 1 | 851.1 ± 1 | 845 ± 1 | 838.6 ± 1 | 832 ± 1 | 824.4 ± 1 | 816.1 ± 1 | 806.6 ± 1
303.15 K, 5000 kPa | 861.4 ± 1 | 855 ± 1 | 848.9 ± 1 | 842.4 ± 1 | 835.9 ± 1 | 828.3 ± 1 | 820.1 ± 1 | 810.6 ± 1
303.15 K, 10000 kPa | 865.1 ± 1 | 858.8 ± 1 | 852.7 ± 1 | 846.2 ± 1 | 839.8 ± 1 | 832.2 ± 1 | 824 ± 1 | 814.3 ± 1
303.15 K, 15000 kPa | 869 ± 1 | 862.4 ± 1 | 856.4 ± 1 | 849.9 ± 1 | 843.4 ± 1 | 835.8 ± 1 | 827.8 ± 1 | 818.3 ± 1
303.15 K, 20000 kPa | 872.4 ± 1 | 866 ± 1 | 859.9 ± 1 | 853.4 ± 1 | 846.9 ± 1 | 839.4 ± 1 | 831.3 ± 1 | 821.7 ± 1
303.15 K, 25000 kPa | 875.8 ± 1 | 869.4 ± 1 | 863.3 ± 1 | 856.8 ± 1 | 850.4 ± 1 | 842.8 ± 1 | 834.6 ± 1 | 825.2 ± 1
303.15 K, 30000 kPa | 879 ± 1 | 872.6 ± 1 | 866.6 ± 1 | 860.1 ± 1 | 853.5 ± 1 | 846 ± 1 | 837.7 ± 1 | 828.3 ± 1
303.15 K, 35000 kPa | 882.1 ± 1 | 875.8 ± 1 | 869.8 ± 1 | 863.3 ± 1 | 856.7 ± 1 | 849.2 ± 1 | 840.8 ± 1 | 831.4 ± 1
303.15 K, 40000 kPa | 885.2 ± 1 | 878.9 ± 1 | 872.8 ± 1 | 866.4 ± 1 | 859.7 ± 1 | 852.3 ± 1 | 843.9 ± 1.1 | 834.4 ± 1.1
303.15 K, 45000 kPa | 888.2 ± 1 | 881.8 ± 1 | 875.6 ± 1 | 869.3 ± 1 | 862.6 ± 1 | 855.1 ± 1.1 | 846.9 ± 1.1 | 837.3 ± 1.1
303.15 K, 50000 kPa | 891.1 ± 1 | 884.8 ± 1 | 878.5 ± 1 | 872.2 ± 1.1 | 865.5 ± 1.1 | 858 ± 1.1 | 849.7 ± 1.1 | 840.1 ± 1.1
303.15 K, 55000 kPa | 894 ± 1 | 887.6 ± 1 | 881.4 ± 1.1 | 875.1 ± 1.1 | 868.6 ± 1.1 | 860.9 ± 1.1 | 852.5 ± 1.1 | 843 ± 1.1
303.15 K, 60000 kPa | 896.7 ± 1 | 890.3 ± 1.1 | 884.1 ± 1.1 | 877.8 ± 1.1 | 871.1 ± 1.1 | 863.6 ± 1.1 | 855.2 ± 1.1 | 845.6 ± 1.1
303.15 K, 65000 kPa | 899.2 ± 1 | 893 ± 1.1 | 886.7 ± 1.1 | 880.4 ± 1.1 | 873.7 ± 1.1 | 866.1 ± 1.1 | 857.8 ± 1.1 | 848.2 ± 1.1
313.15 K, 100 kPa | 847.8 ± 1 | 841.3 ± 1 | 835.1 ± 1 | 829 ± 1 | 822.4 ± 1 | 815.2 ± 1 | 807.3 ± 1 | 797.9 ± 1
313.15 K, 5000 kPa | 852 ± 1 | 845.5 ± 1 | 839.3 ± 1 | 833.1 ± 1 | 826.6 ± 1 | 819.3 ± 1 | 811.5 ± 1 | 802.1 ± 1
313.15 K, 10000 kPa | 856.1 ± 1 | 849.6 ± 1 | 843.4 ± 1 | 837.2 ± 1 | 830.7 ± 1 | 823.4 ± 1 | 815.5 ± 1 | 806.2 ± 1
313.15 K, 15000 kPa | 859.9 ± 1 | 853.6 ± 1 | 847.4 ± 1 | 841.2 ± 1 | 834.7 ± 1 | 827.5 ± 1 | 819.3 ± 1 | 810 ± 1
313.15 K, 20000 kPa | 863.5 ± 1 | 857.3 ± 1 | 851.1 ± 1 | 844.9 ± 1 | 838.4 ± 1 | 831.2 ± 1 | 823 ± 1 | 813.6 ± 1
313.15 K, 25000 kPa | 867.1 ± 1 | 860.9 ± 1 | 854.7 ± 1 | 848.5 ± 1 | 841.9 ± 1 | 834.7 ± 1 | 826.5 ± 1 | 817.1 ± 1
313.15 K, 30000 kPa | 870.5 ± 1 | 864.3 ± 1 | 858.1 ± 1 | 851.9 ± 1 | 845.4 ± 1 | 838.1 ± 1 | 829.9 ± 1 | 820.5 ± 1
313.15 K, 35000 kPa | 873.8 ± 1 | 867.6 ± 1 | 861.5 ± 1 | 855.3 ± 1 | 848.7 ± 1 | 841.4 ± 1 | 833.2 ± 1 | 823.7 ± 1.1
313.15 K, 40000 kPa | 877 ± 1 | 870.8 ± 1 | 864.7 ± 1 | 858.4 ± 1 | 851.9 ± 1 | 844.6 ± 1.1 | 836.4 ± 1.1 | 826.9 ± 1.1
313.15 K, 45000 kPa | 880.2 ± 1 | 874 ± 1 | 867.8 ± 1 | 861.6 ± 1.1 | 855 ± 1.1 | 847.7 ± 1.1 | 839.4 ± 1.1 | 830 ± 1.1
313.15 K, 50000 kPa | 883.3 ± 1 | 876.9 ± 1 | 870.8 ± 1.1 | 864.5 ± 1.1 | 857.9 ± 1.1 | 850.6 ± 1.1 | 842.5 ± 1.1 | 833 ± 1.1
313.15 K, 55000 kPa | 886.2 ± 1 | 879.9 ± 1.1 | 873.8 ± 1.1 | 867.5 ± 1.1 | 860.9 ± 1.1 | 853.5 ± 1.1 | 845.3 ± 1.1 | 835.9 ± 1.1
313.15 K, 60000 kPa | 889 ± 1.1 | 882.7 ± 1.1 | 876.6 ± 1.1 | 870.4 ± 1.1 | 863.7 ± 1.1 | 856.3 ± 1.1 | 848.2 ± 1.1 | 838.7 ± 1.1
313.15 K, 65000 kPa | 891.8 ± 1.1 | 885.5 ± 1.1 | 879.3 ± 1.1 | 873.1 ± 1.1 | 866.5 ± 1.1 | 859.1 ± 1.1 | 850.9 ± 1.1 | 841.4 ± 1.1
323.15 K, 100 kPa | 838.4 ± 1 | 831.7 ± 1 | 825.5 ± 1 | 819.3 ± 1 | 812.9 ± 1 | 805.9 ± 1 | 798.2 ± 1 | 789.3 ± 1
323.15 K, 5000 kPa | 842.7 ± 1 | 836.2 ± 1 | 829.9 ± 1 | 823.8 ± 1 | 817.3 ± 1 | 810.3 ± 1 | 802.6 ± 1 | 793.6 ± 1
323.15 K, 10000 kPa | 847 ± 1 | 840.5 ± 1 | 834.3 ± 1 | 828 ± 1 | 821.6 ± 1 | 814.5 ± 1 | 806.9 ± 1 | 797.9 ± 1
323.15 K, 15000 kPa | 851.1 ± 1 | 844.5 ± 1 | 838.4 ± 1 | 832.2 ± 1 | 825.8 ± 1 | 818.7 ± 1 | 810.9 ± 1 | 801.8 ± 1
323.15 K, 20000 kPa | 855 ± 1 | 848.5 ± 1 | 842.3 ± 1 | 836.1 ± 1 | 829.7 ± 1 | 822.6 ± 1 | 814.8 ± 1 | 805.7 ± 1
323.15 K, 25000 kPa | 858.9 ± 1 | 852.2 ± 1 | 846.1 ± 1 | 839.9 ± 1 | 833.5 ± 1 | 826.3 ± 1 | 818.6 ± 1 | 809.5 ± 1
323.15 K, 30000 kPa | 862.5 ± 1 | 855.9 ± 1 | 849.7 ± 1 | 843.5 ± 1 | 837.1 ± 1 | 829.9 ± 1 | 822.2 ± 1 | 813 ± 1
